Assay results as given in ChEMBL document CHEMBL1201862, “PubChem BioAssay data set” (2004).
Where a name gives a salt, the structure may show the parent alone. Values belong to the molecule of their own block, whether it stands above or below them. Active and inactive are the calls of the source. For most assays here, no stated cut-off is given here; in the data, active = IC50 of 10 µM or less and inactive = more.

How the values were obtained:
[1] = biological target: T1, Neuropeptide Y receptor type 2 (Homo sapiens, UniProt P49146); assay type: functional, cell-based;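 further: HEK293 cells expressing the receptor and a CNG channel; stimulus was NPY near EC95 followed by isoproterenol to raise cAMP; antagonist potency measured as restoring cAMP signal that NPY suppresses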
T1 sequence (P49146 whole entry): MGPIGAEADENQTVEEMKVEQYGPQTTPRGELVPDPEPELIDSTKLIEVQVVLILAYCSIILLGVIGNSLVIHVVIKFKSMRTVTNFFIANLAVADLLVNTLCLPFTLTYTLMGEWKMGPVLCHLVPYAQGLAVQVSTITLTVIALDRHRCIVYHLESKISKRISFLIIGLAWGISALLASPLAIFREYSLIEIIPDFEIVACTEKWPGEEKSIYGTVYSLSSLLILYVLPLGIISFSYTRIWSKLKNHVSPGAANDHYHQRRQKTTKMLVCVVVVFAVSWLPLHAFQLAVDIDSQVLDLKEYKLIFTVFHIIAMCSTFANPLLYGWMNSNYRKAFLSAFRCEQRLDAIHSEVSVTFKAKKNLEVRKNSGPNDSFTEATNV

[2] = biological target: T2, Neuropeptide Y receptor type 1 (Homo sapiens, UniProt P25929); assay type: functional;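 further: HEK293 cells with a CNG channel challenged with NPY then isoproterenol; potency as antagonist that reverses NPY suppression of cAMP signal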
T2 sequence (P25929 whole entry): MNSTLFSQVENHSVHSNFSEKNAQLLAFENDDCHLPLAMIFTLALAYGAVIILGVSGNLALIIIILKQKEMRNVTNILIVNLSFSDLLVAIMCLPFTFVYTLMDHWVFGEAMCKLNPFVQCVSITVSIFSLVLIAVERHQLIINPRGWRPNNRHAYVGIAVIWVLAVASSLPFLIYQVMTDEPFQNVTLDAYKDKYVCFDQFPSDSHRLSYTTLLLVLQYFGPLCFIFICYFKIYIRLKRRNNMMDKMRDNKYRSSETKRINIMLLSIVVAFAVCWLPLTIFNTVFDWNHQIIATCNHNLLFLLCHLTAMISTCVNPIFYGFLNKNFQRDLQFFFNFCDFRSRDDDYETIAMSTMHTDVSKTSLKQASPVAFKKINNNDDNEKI

[3] = biological target: T2, Neuropeptide Y receptor type 1; assay: IC50 of human NPY-Y1 blockers – cell-based, dose response (AID 1277); assay type: functional
[4] = biological target: T1, Neuropeptide Y receptor type 2; assay: IC50 for human NPY-Y2 blockade – cell-based, counter-screen for NPY-Y1 antagonist project, dose response (AID 1278); assay type: functional
[5] = biological target: Photoreceptor-specific nuclear receptor (Homo sapiens, UniProt Q9Y5X4); assay type: functional, cell-based;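 further: CHO-S cells with Gal4-NCOR and VP16-NR2E3 two-hybrid luciferase reporter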
Sequence of Photoreceptor-specific nuclear receptor (Q9Y5X4 whole entry, the tested form may be a part): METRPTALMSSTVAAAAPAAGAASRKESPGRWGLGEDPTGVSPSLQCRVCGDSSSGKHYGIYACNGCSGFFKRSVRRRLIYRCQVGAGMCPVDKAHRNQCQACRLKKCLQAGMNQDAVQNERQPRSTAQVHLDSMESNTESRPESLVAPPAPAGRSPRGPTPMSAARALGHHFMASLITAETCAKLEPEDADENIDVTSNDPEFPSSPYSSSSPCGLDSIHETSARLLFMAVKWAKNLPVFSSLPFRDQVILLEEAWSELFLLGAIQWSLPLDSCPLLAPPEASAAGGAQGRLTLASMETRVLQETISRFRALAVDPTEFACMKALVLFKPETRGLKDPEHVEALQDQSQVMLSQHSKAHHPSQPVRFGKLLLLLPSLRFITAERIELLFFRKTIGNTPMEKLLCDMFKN

Ion channel NompC = Ion channel NompC (Danio rerio, UniProt Q7T1G6); assay: Fluorescence counterscreen assay for TRPML3 agonists: dose response cell-based high-throughput screening assay to identify agonists of the transient receptor potential channel N1 (TRPN1). [Related pubchem assays: 1526, 1424, 1448 ]; assay type: functional
Sequence of Ion channel NompC (Q7T1G6 whole entry): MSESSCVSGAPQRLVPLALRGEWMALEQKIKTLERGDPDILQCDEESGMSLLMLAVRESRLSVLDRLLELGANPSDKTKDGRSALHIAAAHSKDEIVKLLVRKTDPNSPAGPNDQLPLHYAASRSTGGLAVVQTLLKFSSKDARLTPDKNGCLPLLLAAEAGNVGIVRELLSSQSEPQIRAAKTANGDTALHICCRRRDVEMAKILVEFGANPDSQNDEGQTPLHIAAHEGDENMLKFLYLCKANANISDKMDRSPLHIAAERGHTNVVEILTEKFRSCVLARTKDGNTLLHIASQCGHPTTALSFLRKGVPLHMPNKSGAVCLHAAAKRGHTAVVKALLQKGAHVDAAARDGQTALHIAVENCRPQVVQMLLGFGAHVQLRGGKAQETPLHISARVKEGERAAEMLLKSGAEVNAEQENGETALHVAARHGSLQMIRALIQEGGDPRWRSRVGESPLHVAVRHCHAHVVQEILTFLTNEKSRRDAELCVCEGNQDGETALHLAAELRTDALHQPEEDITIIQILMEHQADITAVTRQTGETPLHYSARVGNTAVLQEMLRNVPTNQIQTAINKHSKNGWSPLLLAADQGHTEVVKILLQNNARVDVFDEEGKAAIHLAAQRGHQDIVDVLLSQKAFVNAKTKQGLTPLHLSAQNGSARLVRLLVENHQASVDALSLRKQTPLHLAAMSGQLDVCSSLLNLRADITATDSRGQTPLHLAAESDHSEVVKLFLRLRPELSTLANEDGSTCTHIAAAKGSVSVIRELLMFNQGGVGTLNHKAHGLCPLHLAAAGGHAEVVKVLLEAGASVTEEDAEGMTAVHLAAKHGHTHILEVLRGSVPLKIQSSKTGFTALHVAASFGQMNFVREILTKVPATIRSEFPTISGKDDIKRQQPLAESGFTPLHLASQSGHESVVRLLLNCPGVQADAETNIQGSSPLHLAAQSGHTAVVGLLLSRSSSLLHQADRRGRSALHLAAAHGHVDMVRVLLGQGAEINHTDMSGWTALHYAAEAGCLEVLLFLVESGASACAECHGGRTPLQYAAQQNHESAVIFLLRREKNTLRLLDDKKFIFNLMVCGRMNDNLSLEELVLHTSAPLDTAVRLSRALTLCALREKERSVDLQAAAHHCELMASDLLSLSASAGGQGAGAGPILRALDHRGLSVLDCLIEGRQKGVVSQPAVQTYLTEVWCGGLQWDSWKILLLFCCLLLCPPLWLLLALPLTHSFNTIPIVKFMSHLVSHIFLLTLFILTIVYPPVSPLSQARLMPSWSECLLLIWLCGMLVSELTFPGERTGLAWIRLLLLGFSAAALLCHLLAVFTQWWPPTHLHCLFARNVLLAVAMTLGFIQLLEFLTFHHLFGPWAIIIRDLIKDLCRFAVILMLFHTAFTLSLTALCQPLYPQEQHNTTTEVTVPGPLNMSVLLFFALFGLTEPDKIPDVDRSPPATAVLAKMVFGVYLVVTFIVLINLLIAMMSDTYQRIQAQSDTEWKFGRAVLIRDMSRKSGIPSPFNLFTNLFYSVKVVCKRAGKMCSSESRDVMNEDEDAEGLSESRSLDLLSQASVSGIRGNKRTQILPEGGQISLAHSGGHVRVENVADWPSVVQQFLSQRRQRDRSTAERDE

Streptococcus = assay: GAS UMAA2166 growth inhibition – luminescence, BacTiterGlo, counter-screen for streptokinase expression inhibitor project, dose response (AID 1915); assay type: functional, organism-based;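 further: potency for reduction of bacterial viability or growth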
[6] = test system: Streptococcus sp. 'group A'; assay: Streptococcus pyogenes SK(-)GAS viability under kanamycin – luminescence, BacTiterGlo, confirmation, counter-screen for streptokinase expression inhibitor project, dose response (AID 1900); assay type: functional, organism-based
Mucolipin-3 = Mucolipin-3 (Homo sapiens, UniProt Q8TDD5); assay: Dose response cell-based high-throughput screening assay for agonists of the transient receptor potential channel ML3 (TRPML3). [Related pubchem assays: 1526, 1424, 1448 ]; assay type: functional
Sequence of Mucolipin-3 (Q8TDD5 whole entry): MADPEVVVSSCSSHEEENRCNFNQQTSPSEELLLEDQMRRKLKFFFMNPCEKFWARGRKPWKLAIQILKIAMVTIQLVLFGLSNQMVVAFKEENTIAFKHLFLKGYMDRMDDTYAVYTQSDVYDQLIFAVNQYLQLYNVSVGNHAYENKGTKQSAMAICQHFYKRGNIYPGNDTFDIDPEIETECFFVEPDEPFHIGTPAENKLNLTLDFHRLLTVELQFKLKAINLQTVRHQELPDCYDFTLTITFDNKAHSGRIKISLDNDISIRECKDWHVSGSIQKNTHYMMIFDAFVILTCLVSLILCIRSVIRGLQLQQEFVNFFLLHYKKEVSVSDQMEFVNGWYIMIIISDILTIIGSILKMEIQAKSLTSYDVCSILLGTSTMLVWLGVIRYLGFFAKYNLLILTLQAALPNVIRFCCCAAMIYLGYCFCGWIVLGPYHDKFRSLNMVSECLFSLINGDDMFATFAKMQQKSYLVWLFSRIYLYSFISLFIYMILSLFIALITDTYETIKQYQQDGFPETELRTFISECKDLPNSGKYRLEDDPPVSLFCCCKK

Structure (SMILES): CN(C)C(=O)C(CCN1CCC(O)(c2ccc(Cl)cc2)CC1)(c1ccccc1)c1ccccc1 [LOPERAMIDE HYDROCHLORIDE]
IC50 [1]: > 35 µM (not active)
IC50 [2]: > 35 µM (not active)

IC50 [3]: > 35 µM (not active)
IC50 [4]: > 35 µM (not active)
Structure (SMILES): COc1ccc(N(C)S(=O)(=O)c2cccc(C(=O)NC3CCC(C)CC3)c2)cc1 (centres undefined)

Structure (SMILES): N=C1SCC(=O)N1c1ncc(Cc2cccc(Cl)c2)s1
IC50 [5]: 2.63 µM (active)
EC50 (Ion channel NompC): > 29.9 µM (not active)
EC50 (Streptococcus): 3.33 µM (active)
EC50 [6]: 0.244 µM (active)
EC50 (Mucolipin-3): 5.44 µM (active)
